The test system of the assay is KMS-12BM MM xenografts. Put plainly: In vivo antitumor efficacy against KMS-12BM MM xenografts. Particulars: D14-25; for Antitumor efficacy (result in words): KMS-12BM xenografts, RG6146 30 mg/kg ip, venetoclax 100 mg/kg po, single agent or combination; for Tumor Regression (%) / npTCR and CI (non-parametric Treatment to Control Ratio) / TGI % (tumor growth inhibition): s.c. KMS-12BM human MM xenografts in female CIEA NOG mice, RG6146 30 mg/kg ip QD, venetoclax 100 mg/kg po QD, Day 25; for TGI % (tumor growth inhibition): compared to control. Further details: species or system CIEA NOG mice. On the procedure: The in vivo antitumor efficacy of BET inhibitor RG6146 in combination with Bcl-2 inhibitor venetoclax (GDC-0199) was evaluated against KMS-12BM MM xenografts.
BET inhibitor RG6146 was provided as a powder from Roche, Basel, Switzerland and resuspended prior to use. Bcl-2 inhibitor venetoclax was provided by Genentech, South San Francisco, USA and formulated prior to use.
The original KMS-12BM human Multiple Myeloma cell line (MM) was purchased from ATCC (Manassas, V., USA). Expansion of tumor cells for the transplantation was done by the TAP CompacT CellBase Cell Culture Roboter according to the protocol. Tumor cell line was routinely cultured in RPMI 1640 medium, FCS 10% and L-Glutamin 2 mM at 37° C. in a water-saturated atmosphere at 5% CO2. Culture passage was performed with trypsin/EDTA 1× splitting twice/week and passage 3 used for transplantation.
Female CIEA NOG mice (Taconic), age 5-7 weeks at arrival, maintained under specific-pathogen-free condition with daily cycles of 12 h light/12 h darkness according to committed guidelines. Experimental study protocol was reviewed and approved by local government. After arrival animals were maintained in animal facility for one week to get accustomed to new environment and for observation. Continuous health monitoring was carried out on regular basis. Diet food and autoclaved water were provided ad libitum.
Animals were controlled daily for clinical symptoms and detection of adverse effects. For monitoring throughout the experiment body weight of animals was documented.
Animal treatment started after randomisation when median tumor size was about 170 mm^3. The vehicle was administered ip once daily (QD) on D14-25. BET inhibitor RG6146 ip treatment at 30 mg/kg was done as single agent and in combination on D14-25. Finally, Bcl-2 inhibitor venetoclax was given orally at 100 mg/kg as single agent and in combination on D14-25.
KMS-12BM human MM cells were s.c. inoculated with Matrigel onto female CIEA-NOG mice. Tumor bearing mice were randomized 14 days later to the indicated study groups and compound treatment initiated. Tumor bearing animals were treated with vehicle control, with the BET inhibitor RG6146 at 30 mg/kg or with Bcl-2 inhibitor venetoclax at 100 mg/kg as single agent and in combination thereof.

As for `Cc1sc2c(c1C)C(c1ccc(Cl)cc1)=N[C@@H](CC(=O)NCCCN1CCN(C)CC1)c1nnc(C)n1-2` [RG6146, 2-[(S)-4-(4-Chloro-phenyl)-2,3,9-trimethyl-6H-1-thia-5,7,8,9a-tetraaza-cyclopenta[e]azulen-6-yl]-N-[3-(4-methyl-piperazin-1-yl)-propyl]-acetamide], the “Antitumor efficacy (result in words)” value is “nearly tumor stasis”; the “Tumor Regression (%)” value is given as 0%; the “npTCR and CI (non-parametric Treatment to Control Ratio)” value was determined as 0.06; the “TGI % (tumor growth inhibition)” value is reported as 94%.

With `CC1(C)CCC(CN2CCN(c3ccc(C(=O)NS(=O)(=O)c4ccc(NCC5CCOCC5)c([N+](=O)[O-])c4)c(Oc4cnc5[nH]ccc5c4)c3)CC2)=C(c2ccc(Cl)cc2)C1` [venetoclax, 4-(4-{[2-(4-chlorophenyl)-4,4-dimethylcyclohex-1-en-1-yl]methyl}piprazin-1-yl)-N-({3-nitro-4-[(tetrahydro-2H-pyran-4-ylmethyl)amino]phenyl}sulfonyl)-2-(1H-pyrrolo[2,3-b]pyridin-5-yloxy)benzamide], the “Antitumor efficacy (result in words)” value is “weaker activity”; the “Tumor Regression (%)” value turned out to be 0%; the “npTCR and CI (non-parametric Treatment to Control Ratio)” value is given as 0.55; the “TGI % (tumor growth inhibition)” value stood at 49%.

The values above are taken from patent publication US20200237779A1, “COMBINATION THERAPY WITH A BET INHIBITOR AND A BCL-2 INHIBITOR” (Hoffmann-La Roche Inc., priority 2017, published 2020).
